Data published in patent publication US20160051514A1, “METHODS FOR TREATMENT OF CARDIOMYOPATHY” (THE BRIGHAM AND WOMEN'S HOSPITAL, INC., priority 2013, published 2016).
Entries after “also recorded” stand apart in the source; their conditions may differ.

What was measured:
Type in all cases: cell-based
[1] = tested on: neonatal rat ventricular myocytes expressing 2057del2 plakoglobin; experiment: Immunofluorescence of intercalated disk proteins in neonatal rat ventricular myocytes
Method: Neonatal rat ventricular myocyte isolation and culture, stretch protocols: Primary cardiac myocyte cultures were prepared from ventricles of 1-day-old Wistar rat pups (Charles River) as previously described.^9 Cells were plated on collagen-coated plastic chamber slides at a density of […] cells/cm^2 and grown for 4 days prior to experimentation. In selected experiments, monolayers grown on collagen--coated silicone membranes were subjected to linear pulsatile stretch using a custom-designed apparatus as described in previous studies.'° Cells were stretched to 110% of resting length at a. frequency of 3 Hz for 1-4 hr in serum-free medium. In other experiments cultures were incubated with reagents including pifitlirin A (5 μM, 1 hr) and SB216763 (5 μM, 24 hr) prior to experimentation. All protocols were approved by the Institutional Animal Care and Use Committee (IACUC).
Viral transfection: A recombinant adenoviral construct expressing 2057del2-plakoglobin was created with the ViraPower Adenoviral Expression system (Invitrogen) using the pAd/CMV/V5-DEST vector through LR clonase-mediated recombination. The V5-tag was used to identify the mutant protein and distinguish it from wildtype plakoglobin. Two days post-plating, monolayers were exposed to viral solution (1:130 dilution in serum-free media, 37° C.) for 1 hr after which viral solution was replaced with complete medium in the presence or absence of reagents.
Immunofluoresence staining and microscopy in cultured cells: Cultures were rinsed in serum-free medium and fixed in 4% paraformaldehyde at room temperature for 5 min or in acetone at −20° C. for 10 min. Fixed cells were immunostained with mouse monoclonal anti-plakoglobin (Sigma), anti-N-cadhcrin (Sigma), anti-Cx43 (Millipore), anti-desmopla.kin (Fitzgerald), anti-SAP97 (Santa Cruz Biotechnology) antibodies and anti-Nav1.5 (kindly provided by Dr. Hugues Abriel, University of Bern, Switzerland) antibodies. Specific immunoreactive signal was detected by laser scanning confocal microscopy as previously described.”
Neonatal rat ventricular myocyte isolation, culture, stretch protocols: Primary cardiac myocyte cultures were prepared from ventricles of 1-day-old Wistar rat pups (Charles River) as previously described (36). Cells were plated on collagen-coated plastic chamber slides at a density of 2.4×10^5 cells/cm2 and grown for 4 days prior to experimentation. In selected experiments, monolayers grown on collagen-coated silicone membranes were subjected to linear pulsatile stretch using a custom-designed apparatus as described in previous studies (35). Cells were stretched to 110% of resting length at a frequency of 3 Hz for 1-4 hr in serum-free medium. In other experiments cultures were incubated with reagents including pifithrin A (5 μM, 1 hr) and SB216763 (0.1-10 μM for 12 or 24 hr) prior to experimentation. Vehicle controls (DMSO) were included in all experiments.
Viral transfection: A recombinant adenoviral construct expressing 2057del2 plakoglobin was created with the ViraPower Adenoviral Expression™ system (Invitrogen) using the pAd/CMV/V5-DEST vector through LR clonase-mediated recombination. The V5-tag was used to identify the mutant protein and distinguish it from wildtype plakoglobin. Two days post-plating, monolayers were exposed to viral solution (1:130 dilution in serum-free media, 37° C.) for 1 hr after which viral solution was replaced with complete medium in the presence or absence of reagents. Immunofluorescence staining and microscopy in cultured cells: Cultures were rinsed in serum-free medium and fixed in 4% paraformaldehyde at 25° C. for 5 min or in acetone at −20° C. for 10 min. Fixed cells were immunostained with mouse monoclonal anti-plakoglobin (Sigma), anti-N-cadherin (Sigma), anti-Cx43 (Millipore), anti-desmoplakin (Fitzgerald), anti-SAP97 (Santa Cruz Biotechnology) antibodies and anti-Nav1.5 antibodies (rabbit polyclonal).

[2] = tested on: neonatal rat ventricular myocytes expressing 2057del2 plakoglobin; experiment: TUNEL assay of myocyte apoptosis; settings: cells expressing 2057del2 plakoglobin, SB216763
Source text: (§1) TUNEL assay: Apoptotic cells in cultures were detected by terminal deoxynucleotidyl transferase-mediated biotinylated UTP nick end-labeling (TUNEL) assay using the ApopTag™ Fluorescein Direct in Situ Apoptosis Detection Kit (Millipore) as previously described.^9 Nuclei were stained with DAPI, and TUNEL-positive and total nuclei were counted under a laser scanning confocal microscope in 5 fields per chamber.
as §1, with “ApopTag” for “ApopTag™”, “KitTM” for “Kit”, “according to the manufacturer's instructions.” for “as previously described.^9”, “DAPI;” for “DAPI, and”, “chamber or silicone membrane in stretch experiments.” for “chamber.”

[3] = tested on: neonatal rat ventricular myocytes expressing 2057del2 plakoglobin; experiment: Western immunoblotting of total cellular protein content
Method: (§2) Western Immunoblotting: Cells were washed in PBS and scraped from culture dishes in a low ionic strength buffer containing protease inhibitors (1 mM NaHCO3, 5 mM EDTA, 1 mM EGTA, 1 μM leupeptin, 1 μM pepstatin, 0.1 μM aprotinin, 1 mM benzamidine, 1 mM iodoacetamide, 1 mM phenylmethylsulfortylfluoride). Following centrifugation, the pellet was resuspended in the same buffer and aliquots containing 10 μg of total protein were analyzed by SDS polyacrylamide gel electrophoresis. Proteins were detected by enhanced chemiluminescence (ECL. Amersham Corp). All blots were stripped in 62.5 mM Tris-HCl, pH 6.8, 100 mM β-mercapto-ethanol, and re-probed with a mouse monoclonal anti-GAPDH antibody (Fitzgerald) as a loading control.
as §2, with “phenylmethylsulfonylfluoride).” for “phenylmethylsulfortylfluoride).”, “(ECL,” for “(ECL.”

[4] = cells expressing 2057del2 plakoglobin, 5 μM, 24 hr
[5] = cells expressing 2057del2 plakoglobin, 5 μM, 24 hr, listed as SAB216763
[6] = cells expressing 2057del2 plakoglobin, exposure for 24 hr

## Cn1cc(C2=C(c3ccc(Cl)cc3Cl)C(=O)NC2=O)c2ccccc21 [SB216763]
[1]
  Disease features (plakoglobin redistribution, gap junction remodeling, cytokine expression, myocyte apoptosis), summary statements: normalized; also recorded: reversed or prevented
[1]; [4]
  Gap junction remodeling / junctional Cx43 signal: increased junctional signal for Cx43; also recorded: prevented the adverse remodeling of gap junctions
  Subcellular distribution of plakoglobin immunoreactive signal (junctional vs intracellular/nuclear): prevented the marked change in subcellular distribution of plakoglobin and accumulation of nuclear signal
[1]; [5]
  Gap junction remodeling / junctional Cx43 signal: blocked
  Subcellular distribution of plakoglobin immunoreactive signal (junctional vs intracellular/nuclear): prevented redistribution of plakoglobin from junctional to intracellular pools
[1]; [6]
  Nav1.5 immunoreactive signal: signal levels were restored; also recorded: reversed
  SAP97 immunoreactive signal at the cell surface / cell-cell junctions: a more normal distribution was restored; also recorded: fully reversed
[1]; control cultures, 5 μM, 24 hr
  Cx43 signal at cell-cell junctions in control (non-transfected) cultures: increased the amount of Cx43 signal at cell-cell junctions; also recorded: also increased junctional signal for Cx43
[1]; dose-response 0.1-10 μM for 12 or 24 hours, maximal at 24 hr
  Concentration of maximal effect in restoring normal cellular distribution of plakoglobin and Cx43 signals: 5 µM
[2]
  Myocyte apoptosis (TUNEL-positive nuclei): dramatically reduced the number of TUNEL positive nuclei; also recorded: significantly reduced the mean apoptosis index
[2]; listed as SAB216763
  Myocyte apoptosis (TUNEL-positive nuclei): totally abolished
[3]
  Total cellular content of Nav1.5: nor did exposure to SB216763 affect overall levels of Nav1.5; also recorded: without an apparent change in total cellular content of SAP97 and Nav1.5
  Total cellular content of SAP97: without apparent changes in the total amount of SAP97; also recorded: without an apparent change in total cellular content of SAP97 and Nav1.5
  Total cellular content of plakoglobin: no apparent change in the total cellular content of plakoglobin; also recorded: had no apparent effect on plakoglobin expression levels
[3]; control and transfected myocytes, listed as SB2
  Total cellular content / expression of Cx43: Increased Cx43 expression was observed
